Experiments:
Test in all cases: Kinase panel profiling at 1 µmol/L (mobility shift assay, Carna)
Assay type in all cases: biochemical
Details in all cases: 1 µmol/L of BTK inhibitor
EPHA5 = molecular target: T1, EPHA5 (Homo sapiens, UniProt P54756)
T1 construct: purchased Carna Biosciences

CDK5/p25 = molecular target: T2, CDK5/p25 (Homo sapiens, UniProt Q00535)
T2 construct: purchased Carna Biosciences

EPHB4 = molecular target: T3, EPHB4 (Homo sapiens, UniProt P54760)
T3 construct: purchased Carna Biosciences
T3 sequence (P54760 16-987): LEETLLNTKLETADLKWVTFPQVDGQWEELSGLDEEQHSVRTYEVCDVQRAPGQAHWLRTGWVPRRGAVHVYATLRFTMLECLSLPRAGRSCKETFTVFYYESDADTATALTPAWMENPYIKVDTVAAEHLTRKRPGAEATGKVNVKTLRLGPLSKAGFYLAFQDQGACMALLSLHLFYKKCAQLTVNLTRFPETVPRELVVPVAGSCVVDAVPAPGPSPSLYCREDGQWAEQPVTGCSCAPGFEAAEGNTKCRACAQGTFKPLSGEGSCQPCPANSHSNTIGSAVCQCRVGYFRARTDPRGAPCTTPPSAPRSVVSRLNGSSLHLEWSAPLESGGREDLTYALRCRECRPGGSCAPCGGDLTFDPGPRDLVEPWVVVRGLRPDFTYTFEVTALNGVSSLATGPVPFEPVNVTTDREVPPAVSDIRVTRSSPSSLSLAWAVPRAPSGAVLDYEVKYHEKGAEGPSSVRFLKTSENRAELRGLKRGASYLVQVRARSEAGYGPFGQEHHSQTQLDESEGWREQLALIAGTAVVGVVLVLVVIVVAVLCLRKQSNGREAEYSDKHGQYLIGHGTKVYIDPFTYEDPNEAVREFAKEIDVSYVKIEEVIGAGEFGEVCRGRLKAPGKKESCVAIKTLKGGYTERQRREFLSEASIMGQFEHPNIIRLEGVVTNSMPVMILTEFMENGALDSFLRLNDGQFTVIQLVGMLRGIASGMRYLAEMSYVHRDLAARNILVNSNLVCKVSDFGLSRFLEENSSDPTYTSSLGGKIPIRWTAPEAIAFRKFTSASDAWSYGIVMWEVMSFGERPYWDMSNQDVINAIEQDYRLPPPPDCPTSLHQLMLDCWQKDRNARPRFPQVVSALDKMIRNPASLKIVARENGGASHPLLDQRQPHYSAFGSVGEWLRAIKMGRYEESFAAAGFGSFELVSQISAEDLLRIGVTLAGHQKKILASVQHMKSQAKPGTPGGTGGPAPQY

IKKε = molecular target: T4, IKKε (Homo sapiens, UniProt Q14164)
T4 construct: purchased Carna Biosciences
T4 sequence (Q14164 1-716): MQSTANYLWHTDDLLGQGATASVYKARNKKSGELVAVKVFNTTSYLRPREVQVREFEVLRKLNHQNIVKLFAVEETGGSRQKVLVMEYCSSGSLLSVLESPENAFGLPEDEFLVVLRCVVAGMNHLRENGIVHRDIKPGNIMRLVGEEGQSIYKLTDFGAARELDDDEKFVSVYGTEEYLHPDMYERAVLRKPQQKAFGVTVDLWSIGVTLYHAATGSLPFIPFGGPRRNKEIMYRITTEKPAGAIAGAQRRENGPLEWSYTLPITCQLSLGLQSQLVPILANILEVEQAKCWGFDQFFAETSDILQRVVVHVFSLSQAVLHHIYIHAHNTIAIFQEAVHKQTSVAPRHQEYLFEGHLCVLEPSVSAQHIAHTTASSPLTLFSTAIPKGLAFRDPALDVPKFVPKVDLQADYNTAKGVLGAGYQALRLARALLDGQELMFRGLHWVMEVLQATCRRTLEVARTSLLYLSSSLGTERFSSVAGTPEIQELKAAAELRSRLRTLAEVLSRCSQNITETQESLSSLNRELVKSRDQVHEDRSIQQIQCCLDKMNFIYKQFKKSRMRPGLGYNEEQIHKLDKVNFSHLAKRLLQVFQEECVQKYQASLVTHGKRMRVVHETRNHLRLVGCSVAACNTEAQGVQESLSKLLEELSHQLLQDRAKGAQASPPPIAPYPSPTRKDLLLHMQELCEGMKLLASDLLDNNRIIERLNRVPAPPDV

TSSK2 = molecular target: T5, TSSK2 (Homo sapiens, UniProt Q96PF2)
T5 construct: purchased Carna Biosciences
T5 sequence (Q96PF2 1-358): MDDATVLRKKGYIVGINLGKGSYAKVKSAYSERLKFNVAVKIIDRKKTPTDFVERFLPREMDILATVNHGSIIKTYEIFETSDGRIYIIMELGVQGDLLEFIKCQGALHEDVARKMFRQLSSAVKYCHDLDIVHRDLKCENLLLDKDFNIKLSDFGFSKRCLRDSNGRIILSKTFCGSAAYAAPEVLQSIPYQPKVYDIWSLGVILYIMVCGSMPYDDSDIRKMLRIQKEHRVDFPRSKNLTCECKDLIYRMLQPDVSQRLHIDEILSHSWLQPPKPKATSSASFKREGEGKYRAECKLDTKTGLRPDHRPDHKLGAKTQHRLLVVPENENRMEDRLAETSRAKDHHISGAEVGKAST

ROS = molecular target: T6, ROS (Homo sapiens, UniProt P08922)
T6 construct: purchased Carna Biosciences
T6 sequence (P08922 28-2347): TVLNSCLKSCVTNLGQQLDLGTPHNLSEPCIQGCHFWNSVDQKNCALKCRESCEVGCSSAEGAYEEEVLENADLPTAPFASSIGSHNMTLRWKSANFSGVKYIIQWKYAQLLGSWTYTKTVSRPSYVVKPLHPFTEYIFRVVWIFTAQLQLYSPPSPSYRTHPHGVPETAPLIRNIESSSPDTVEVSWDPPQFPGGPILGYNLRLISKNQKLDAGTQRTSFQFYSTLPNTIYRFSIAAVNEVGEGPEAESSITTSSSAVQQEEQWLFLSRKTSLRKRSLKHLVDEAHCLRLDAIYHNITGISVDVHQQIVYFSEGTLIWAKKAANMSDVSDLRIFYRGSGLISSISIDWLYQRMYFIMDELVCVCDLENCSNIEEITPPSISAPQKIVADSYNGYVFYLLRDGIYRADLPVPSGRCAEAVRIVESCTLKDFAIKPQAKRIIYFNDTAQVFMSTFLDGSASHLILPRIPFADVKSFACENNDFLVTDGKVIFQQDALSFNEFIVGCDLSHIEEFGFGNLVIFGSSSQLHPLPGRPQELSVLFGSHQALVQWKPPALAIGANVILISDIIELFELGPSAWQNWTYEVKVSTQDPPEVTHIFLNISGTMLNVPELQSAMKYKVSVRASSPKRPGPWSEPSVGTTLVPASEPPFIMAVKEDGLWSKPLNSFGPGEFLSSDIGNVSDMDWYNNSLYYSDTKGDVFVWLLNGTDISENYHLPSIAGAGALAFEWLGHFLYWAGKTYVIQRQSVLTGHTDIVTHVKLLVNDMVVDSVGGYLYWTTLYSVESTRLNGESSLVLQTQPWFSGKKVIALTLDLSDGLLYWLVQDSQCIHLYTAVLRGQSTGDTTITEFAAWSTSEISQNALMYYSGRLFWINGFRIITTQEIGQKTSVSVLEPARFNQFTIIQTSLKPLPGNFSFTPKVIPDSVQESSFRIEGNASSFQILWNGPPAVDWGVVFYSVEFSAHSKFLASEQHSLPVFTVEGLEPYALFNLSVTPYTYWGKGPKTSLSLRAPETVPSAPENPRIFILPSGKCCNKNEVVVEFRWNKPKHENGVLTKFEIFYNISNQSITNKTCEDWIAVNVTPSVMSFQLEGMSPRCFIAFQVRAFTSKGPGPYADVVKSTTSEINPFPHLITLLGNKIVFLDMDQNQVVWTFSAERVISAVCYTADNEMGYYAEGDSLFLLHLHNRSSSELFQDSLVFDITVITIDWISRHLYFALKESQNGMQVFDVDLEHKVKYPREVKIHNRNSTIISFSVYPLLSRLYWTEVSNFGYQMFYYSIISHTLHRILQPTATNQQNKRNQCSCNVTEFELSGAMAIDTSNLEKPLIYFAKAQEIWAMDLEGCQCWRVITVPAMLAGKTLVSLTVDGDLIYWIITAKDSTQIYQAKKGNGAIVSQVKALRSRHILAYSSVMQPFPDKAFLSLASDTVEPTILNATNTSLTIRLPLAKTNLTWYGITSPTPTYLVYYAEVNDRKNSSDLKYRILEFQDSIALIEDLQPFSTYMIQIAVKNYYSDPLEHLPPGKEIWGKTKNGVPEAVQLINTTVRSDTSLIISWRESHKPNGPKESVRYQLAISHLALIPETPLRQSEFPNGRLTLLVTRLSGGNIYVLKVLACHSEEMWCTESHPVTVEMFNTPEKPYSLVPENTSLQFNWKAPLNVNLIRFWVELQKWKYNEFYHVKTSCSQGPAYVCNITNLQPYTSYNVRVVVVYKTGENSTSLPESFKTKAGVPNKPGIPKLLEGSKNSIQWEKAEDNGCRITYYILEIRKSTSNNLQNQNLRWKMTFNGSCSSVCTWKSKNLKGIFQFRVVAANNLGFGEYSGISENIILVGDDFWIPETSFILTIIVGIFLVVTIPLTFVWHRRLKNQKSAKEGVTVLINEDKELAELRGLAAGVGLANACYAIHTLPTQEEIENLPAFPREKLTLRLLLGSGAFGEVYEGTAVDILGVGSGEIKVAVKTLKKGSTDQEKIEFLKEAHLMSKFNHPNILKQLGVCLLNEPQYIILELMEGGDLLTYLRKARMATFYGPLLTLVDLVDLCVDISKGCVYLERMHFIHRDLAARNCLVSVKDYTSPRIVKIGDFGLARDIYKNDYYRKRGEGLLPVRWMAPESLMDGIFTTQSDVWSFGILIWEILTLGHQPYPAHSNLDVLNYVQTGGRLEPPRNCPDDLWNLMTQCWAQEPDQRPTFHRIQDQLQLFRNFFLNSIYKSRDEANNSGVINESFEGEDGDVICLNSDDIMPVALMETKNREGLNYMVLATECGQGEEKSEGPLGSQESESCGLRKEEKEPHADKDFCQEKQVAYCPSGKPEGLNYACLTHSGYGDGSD

T2 sequence (Q00535 whole entry): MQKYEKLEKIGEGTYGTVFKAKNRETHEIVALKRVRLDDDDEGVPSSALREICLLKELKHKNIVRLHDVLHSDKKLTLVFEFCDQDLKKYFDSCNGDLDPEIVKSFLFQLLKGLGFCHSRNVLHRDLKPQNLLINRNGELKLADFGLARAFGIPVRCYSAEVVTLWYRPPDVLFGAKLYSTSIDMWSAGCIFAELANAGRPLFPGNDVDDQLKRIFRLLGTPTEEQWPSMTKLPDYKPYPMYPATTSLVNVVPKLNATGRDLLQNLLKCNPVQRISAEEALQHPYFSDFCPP
T2 sequence (Q15078 99-307 partner limits assumed): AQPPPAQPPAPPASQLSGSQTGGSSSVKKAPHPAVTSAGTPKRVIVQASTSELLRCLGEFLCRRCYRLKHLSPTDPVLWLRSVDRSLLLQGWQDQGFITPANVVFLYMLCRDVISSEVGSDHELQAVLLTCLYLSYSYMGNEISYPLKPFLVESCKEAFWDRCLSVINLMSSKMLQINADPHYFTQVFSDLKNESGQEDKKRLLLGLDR
T1 sequence (P54756 25-1037): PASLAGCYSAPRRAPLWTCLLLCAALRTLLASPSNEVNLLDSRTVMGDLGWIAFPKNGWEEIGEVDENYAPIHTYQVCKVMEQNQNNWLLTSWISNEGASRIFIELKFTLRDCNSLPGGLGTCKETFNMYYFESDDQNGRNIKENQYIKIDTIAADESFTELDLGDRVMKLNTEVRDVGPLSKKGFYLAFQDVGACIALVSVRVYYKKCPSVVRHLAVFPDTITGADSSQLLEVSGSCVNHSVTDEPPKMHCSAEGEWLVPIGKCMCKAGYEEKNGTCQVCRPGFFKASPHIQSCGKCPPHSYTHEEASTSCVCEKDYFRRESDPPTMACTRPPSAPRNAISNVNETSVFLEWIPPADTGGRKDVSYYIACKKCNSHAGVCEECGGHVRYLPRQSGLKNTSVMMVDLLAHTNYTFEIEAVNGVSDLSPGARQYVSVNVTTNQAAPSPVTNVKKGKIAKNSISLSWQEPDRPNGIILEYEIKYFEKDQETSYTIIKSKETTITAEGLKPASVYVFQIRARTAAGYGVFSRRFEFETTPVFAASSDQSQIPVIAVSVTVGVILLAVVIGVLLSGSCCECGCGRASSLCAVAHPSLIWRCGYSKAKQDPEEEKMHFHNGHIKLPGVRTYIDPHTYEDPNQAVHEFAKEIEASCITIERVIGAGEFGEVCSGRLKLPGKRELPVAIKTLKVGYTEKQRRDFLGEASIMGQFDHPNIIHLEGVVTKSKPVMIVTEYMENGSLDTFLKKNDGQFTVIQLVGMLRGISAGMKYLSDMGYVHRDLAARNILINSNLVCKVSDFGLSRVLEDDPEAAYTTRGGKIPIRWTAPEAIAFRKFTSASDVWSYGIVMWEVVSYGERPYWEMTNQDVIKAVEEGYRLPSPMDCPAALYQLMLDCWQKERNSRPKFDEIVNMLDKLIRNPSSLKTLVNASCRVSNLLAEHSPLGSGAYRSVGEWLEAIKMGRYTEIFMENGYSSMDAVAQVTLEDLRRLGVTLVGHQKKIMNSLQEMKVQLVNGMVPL

SMILES | Percentage inhibition of kinase enzyme activity (EPHA5) [%] | Percentage inhibition of kinase enzyme activity (CDK5/p25) [%] | Percentage inhibition of kinase enzyme activity (EPHB4) [%] | Percentage inhibition of kinase enzyme activity (IKKε) [%] | Percentage inhibition of kinase enzyme activity (TSSK2) [%] | Percentage inhibition of kinase enzyme activity (ROS) [%]
CC#CC(=O)N1CCC[C@H]1c1nc(-c2ccc(C(=O)Nc3ccccn3)cc2)c2c(N)nccn12 [acalabrutinib] | -1.17 | -19.05 | -1.45 | 1.46 | -3.11 | 1.79
C=CC(=O)N1CCC[C@@H](n2nc(-c3ccc(Oc4ccccc4)cc3)c3c(N)ncnc32)C1 [ibrutinib] | 25.73 | -5.18 | 26.52 | -0.70 | -3.91 | 4.82
O=C(c1ccc(Oc2ccccc2)cc1Cl)c1c[nH]c2ncnc(N[C@@H]3CC[C@@H](CO)OC3)c12 [nemtabrutinib] | 100.38 | -18.80 | 37.75 | 11.64 | -0.84 | 60.67
COc1ccc(F)cc1C(=O)NCc1ccc(-c2nn([C@@H](C)C(F)(F)F)c(N)c2C(N)=O)cc1 [pirtobrutinib] | 0.45 | 4.92 | 4.51 | 5.28 | -11.71 | 3.20
C=CC(=O)N1CCC([C@@H]2CCNc3c(C(N)=O)c(-c4ccc(Oc5ccccc5)cc4)nn32)CC1 [zanubrutinib] | 13.96 |  | 12.92 |  |  | 

Reference: paper PMC12586182 (Frontiers in Oncology, 2025)
